Assay results published in patent publication US20160237160A1, “ANTI-TWEAKR ANTIBODIES AND USES THEREOF” (BAYER PHARMA AKTIENGESELLSCHAFT, priority 2013, published 2016).

Key:
[1] = tested on: SCaBER xenograft (bladder cancer), NMRI nude mice; test: Xenograft anti-tumor efficacy; format: in vivo; settings: final tumor weight, TPP-2090 10 mg/kg twice weekly for 4 weeks
[2] = tested on: BXF1228 patient-derived bladder cancer model; test: Xenograft anti-tumor efficacy; format: in vivo, mice; settings: final tumor weight, TPP-2090 10 mg/kg twice weekly for 4 weeks
[3] = tested on: Ku-19-19 xenograft (bladder cancer); test: Xenograft anti-tumor efficacy; format: in vivo, mice; settings: final tumor weight, TPP-2090 10 mg/kg twice weekly for 4 weeks
Procedure: (§1) After tumor growth to a size of approximately 40 mm^2 mice were randomized into control and treatment groups with a respective group size of n=8-10. Mice were treated with various doses of anti-TWEAKR antibodies diluted in PBS by intravenous injection (i.v.) into the tail vein with a twice per week schedule (q4dx3: applications twice per week, three applications in total; q4dx8: applications twice per week, eight applications in total). Combination therapy partners such as Regorafenib (10 mg/kg daily, per os) and the PI3K-inhibitor 1 (10 mg/kg, BID, 2d on, 5d off (applications twice daily on two consecutive days, followed by five days without treatment), i.v.) were diluted in their respective formulations whereas the standard of care therapies Irinotecan (5 mg/kg, 4d on, 3d off (applications once daily on four consecutive days followed by three days without treatment) i.v.) and Paclitaxel (16 mg/kg, q7dx4 (applications once per week, four applications in total), i.v.) were diluted in 0.9% NaCl. Animals injected with PBS served as the control (vehicle) group. The applied volume of the compounds was 5 ml/kg body weight per mouse.
(§2) Tumor growth was monitored 2-3 times per week by caliper measurement (length×width in mm) as well as body weight (in g). […]

[4] = tested on: BXF1352 patient-derived bladder cancer model; test: Xenograft anti-tumor efficacy; format: in vivo, mice; settings: final tumor weight, TPP-2090 10 mg/kg twice weekly for 4 weeks
Procedure: as §1, §2

[5] = tested on: Co5896 patient-derived colorectal cancer model; test: Xenograft anti-tumor efficacy; format: in vivo, mice; settings: tumor weight, TPP-2090 10 mg/kg twice weekly for 4 weeks
Procedure: as §1
(§3) Tumor growth was monitored 2-3 times per week by caliper measurement (length×width in mm) as well as body weight (in g). At the end of study tumors were dissected, weighted and used for the calculation of tumor-to-control (T/C) ratios (mean tumor weight of treated animals divided by mean tumor weight of control/vehicle animals). […] 2×10^6 tumor cells in 100% Matrigel were s.c. inoculated in female nude mice. After 7d established tumors with a size of about 40 mm^2 were treated with 0.3 mg/kg, 1 mg/kg and 3 mg/kg of antibodies (i.v., q4dx3: applications twice per week, three applications in total).
(§4) Animal studies were conducted as described in example 8 for further human colorectal cancer tumor cell lines Colo205 and LoVo and for further human colorectal cancer patient-derived models Co7553, Co5896, Co5676, Co5841, CXF 1103 and CXF 533. […] The formulation of regorafenib is described in example 8.

[6] = tested on: LoVo xenograft (colorectal cancer); test: Xenograft anti-tumor efficacy; format: in vivo, mice; settings: tumor weight, TPP-2090 10 mg/kg twice weekly for 4 weeks
Procedure: as §1, §3, §4

[7] = tested on: Colo205 xenograft (colorectal cancer); test: Xenograft anti-tumor efficacy; format: in vivo, mice; settings: tumor weight, TPP-2090 10 mg/kg twice weekly for 4 weeks
Procedure: as §1, §3, §4

TWEAKR = TWEAKR (Homo sapiens, UniProt Q9NP84); settings: published data; read-out: KD / binding affinity to TWEAKR (published); cited from earlier work
[8] = molecular target: T1, TWEAKR protein (TPP-2305) (Homo sapiens, UniProt Q9NP84); test: Biacore monovalent KD with TWEAKR protein; format: binding
T1 construct: TPP-2305; hTNFRSF12Aaa28-80; Human; 30R-AT080; 168; purchased Fitzgerald Inc 30R-AT080
Procedure: Binding affinities of anti-TWEAKR antibodies were determined by surface plasmon resonance analysis on a Biacore T100 instrument (GE Healthcare Biacore, Inc.). Antibodies were immobilized onto a CM5 sensor chip through an indirect capturing reagent, anti-human IgG(Fc). Reagents from the “Human Antibody Capture Kit” (BR-1008-39, GE Healthcare Biacore, Inc.) were used as described by the manufacturer. Anti-TWEAKR antibodies were injected at a concentration of 10 μg/ml at 10 μl/min for 10 sec.
Sensorgrams were generated after in-line reference cell correction followed by buffer sample subtraction. The dissociation equilibrium constant (KD) was calculated based on the ratio of association (kon) and dissociation rated (koff) constants, obtained by fitting sensorgrams with a first order 1:1 binding model.

WiDr cells [9] = test: Inhibition of proliferation (Cell Titer Glo); format: cell-based, human; settings: 96h, 100 μg/ml antibody, no IFN gamma
Procedure: All cells were seeded in the growth media indicated in Table 21 and for all cells except for WiDr cells 100 ng/ml IFNgamma was added to the assay medium when seeding the cells. […]

SW480 cells = test: Inhibition of proliferation (Cell Titer Glo); format: cell-based, human; settings: 72h, 100 μg/ml antibody or *100 ng/ml TWEAK
Procedure: (§5) Therefore cells were plated in 96well plates in 750 assay medium (growth media from Table 21, plus 100 ng/ml IFN gamma for 786-O cells) at the following cell numbers: WiDr cells 3000 cells/well, 786-O cells 2500 cells/well. 24 h later cells were incubated with anti-TWEAKR antibodies (see Table 26), recombinant human TWEAK or isotype control IgG (not shown) at the indicated concentrations (antibodies from 0.03-300 μg/ml, TWEAK 100 or 300 ng/ml). At the time of antibody addition cell viability was determined in sister plates (time point zero): therefore 750/well CTG solution (Promega Cell Titer Glo solution (catalog # G755B and G756B) was added to the cells, incubated for 10 minutes and luminescence was read on a Victor V (Perkin Elmer). 96 h after incubation with the agents, cell viability was determined in the assay plates by addition of 100 μl/well CTG solution, 10 min incubation and reading of luminescence. Proliferation in control wells was calculated by subtracting time zero values from the luminescence values in the untreated control wells. % of cell proliferation was calculated in the compound treated wells as compared to the untreated control wells.
(§6) To evaluate, whether this strong anti-proliferative activity can also be observed in a broader cell panel, in addition LOVO, NCI-H1975, SW-480 (all 3000 cells/well), HT-29 (4000 cells/well), A253 and SK-OV3 (both 2500 cells/well) cells were incubated with 100 μg/ml anti-TWEAKR antibodies or TWEAK ligand for the time periods as indicated in Table 27. All cells were seeded in the growth media indicated in Table 21 and for all cells except for WiDr cells 100 ng/ml IFNgamma was added to the assay medium when seeding the cells. The percentage of growth inhibition for treated cells as compared to proliferation in untreated control cells was measured and calculated as described above. As shown in Table 27 the antibodies of the current invention are more efficacious as compared to other known antibodies in inhibiting proliferation of various cancer cell lines at 100 μg/ml. In most experiments the antibodies of the current invention also show equal or stronger efficacy as compared to 100-300 ng/ml TWEAK ligand. Thus, the antibodies described in this invention are unique in their activity to induce apoptosis and proliferation inhibition in a broad panel of cancer cell lines.

786-O cells [10] = test: Inhibition of proliferation (Cell Titer Glo); format: cell-based, human; settings: 96h, 100 μg/ml antibody or *100 ng/ml TWEAK
Procedure: as §5, §6

A253 cells = test: Inhibition of proliferation (Cell Titer Glo); format: cell-based, human; settings: 72h, 100 μg/ml antibody or **300 ng/ml TWEAK
Procedure: as §5, §6

NCI-H1975 cells = test: Inhibition of proliferation (Cell Titer Glo); format: cell-based, human; settings: 72h, 100 μg/ml antibody or *100 ng/ml TWEAK
Procedure: as §5, §6

HT-29 cells [11] = test: Inhibition of proliferation (Cell Titer Glo); format: cell-based, human; settings: 24h, 100 μg/ml antibody or **300 ng/ml TWEAK
Procedure: as §5, §6

SK-OV3 cells = test: Inhibition of proliferation (Cell Titer Glo); format: cell-based, human; settings: 96h, 100 μg/ml antibody
Procedure: as §5, §6

Lovo cells = test: Inhibition of proliferation (Cell Titer Glo); format: cell-based, human; settings: 72h, 100 μg/ml antibody or *100 ng/ml TWEAK
Procedure: as §5, §6

SK-OV-3 cells = test: FACS binding to cell surface; design: species or system human; settings: SKOV-3; 10 μg/ml
Procedure: (§7) To determine the binding characteristics of the anti-TWEAKR antibodies on mouse and human cancer cell lines, binding was tested by flow cytometry to a panel of cell lines. Adherent cells were washed twice with PBS without Ca and Mg (Biochrom #L1825: aqueous solution containing 8000 mg/l NaCl, 200 mg/l KCl, 1150 mg/l Na2HPO4, and 200 mg/l KH2PO4) and detached by enzyme-free PBS based cell dissociation buffer (Invitrogen). Cells were suspended at approximately 10^5 cells/well in FACS buffer (PBS without Ca/Mg, containing 3% FCS, Biochrom). Cells were centrifuged (250 g, 5 min, 4° C.) and supernatant discarded. Cells were resuspended in dilutions of the antibodies of interest (10 μg/ml in 80 μl if not indicated otherwise) in FACS buffer, and incubated on ice for 1 h. In the following cells were washed once with 1000 cold FACS buffer and 80 μl secondary antibody diluted at 1:150 (PE goat anti-human IgG, Dianova #109-115-098, or PE Goat Anti-Mouse IgG, Jackson Immuno Research #115-115-164) was added. After incubation for 1 h on ice cells were again washed with cold FACS buffer, resuspended in 1000 FACS buffer and analyzed by flow cytometry using a FACS-Array (BD Biosciences). Results are calculated as Geo Mean of fluorescence detected by the antibody of interest subtracted by background fluorescence as measured by detection with the secondary antibody alone. Values are scored according to the following system: Geo Mean−Geo Mean of secondary antibody alone >10: +, >100: ++, >1000: +++, 10000: ++++, close to category border in ( ).

NCI-H322 cells = test: FACS binding to cell surface; design: species or system human; settings: 10 μg/ml
Procedure: as §7

WiDr cells [12] = test: FACS binding to cell surface; design: species or system human; settings: 10 μg/ml
Procedure: as §7

786-O cells [13] = test: FACS binding to cell surface; design: species or system human; settings: 10 μg/ml
Procedure: as §7

HT-29 cells [14] = test: FACS binding to cell surface; design: species or system human; settings: HT29; 10 μg/ml
Procedure: as §7

A375 cells [15] = test: FACS binding to cell surface; design: species or system human; settings: 10 μg/ml
Procedure: as §7

A375 cells [16] = test: IL-8 secretion ELISA; format: cell-based, human; settings: 100 μg/ml, 24 h
Procedure: Therefore A375 cells were plated at 2500 cells/well in 96well plates in growth medium DMEM (Biochrom;# FG 0435, with stable Glutamin), 10% FCS. 24 h later cells were incubated with anti-TWEAKR antibodies, recombinant human TWEAK at various concentrations as indicated or corresponding isotype control IgG. 24 h after start of the incubation with the antibodies, cell supernatant or dilutions thereof were added to the Capture Elisa Plate of the human CXCL8/IL-8 ELISA Kit (R&D Systems DY208) and incubated over night at 4° C. by shaking 300 rpm. On the next day, samples were analyzed by using the human CXCL8/IL-8-ELISA Kit (R&D Systems DY208) according to the manufacturer's instructions. Optical density was measured at 450 nm (Tecan Spectra, Rainbow) together with background correction. To calculate absolute levels of IL-8 a standard curve using recombinant human IL-8 protein was applied according to the manufacturer's recommendations (R&D Systems).

Work on `Nc1ccn([C@@H]2O[C@H](CO)[C@@H](O)C2(F)F)c(=O)n1` [Gemcitabine, gemcitabine, reference compound] yielded a T/C [1] of 0.85, a T/C [2] of 0.93 and a T/C [3] of 0.07.

For `N.N.[Cl][Pt][Cl]` [Oxaliplatin/Cisplatin, cisplatin, reference compound], the T/C [1] was 1.22, the T/C [2] was 0.84 and the T/C [4] was 0.85.

With `CNC(=O)c1cc(Oc2ccc(NC(=O)Nc3ccc(Cl)c(C(F)(F)F)c3)c(F)c2)ccn1` [Regorafenib] the “Final T/C” value [5] was 0.67, the “Final T/C” value [6] was 0.63 and the “Final T/C” value [7] was 0.42.

For “PDL-192(TPP-1104): reference agonistic anti-TWEAKR antibody, human IgG1, variable domains from WO2009/020933; SEQ ID NO 127/128 [reference compound]”, the Kd (TWEAKR) is listed as 5.5 nM, the ka ([8]; first order 1:1 binding model) is listed as 1e+07 M⁻¹ s⁻¹ and the kd ([8]; first order 1:1 binding model) is listed as 0.038 s⁻¹. For the same compound, the Kd ([8]; monovalent KD) was 3.7 nM, the “% Inhibition of proliferation” value (WiDr cells [9]) was 12% and the “% Inhibition of proliferation” value (SW480 cells) was 27%. The “% Inhibition of proliferation” value (786-O cells [10]) was 41%, the “% Inhibition of proliferation” value (A253 cells) was 87% and the “% Inhibition of proliferation” value (NCI-H1975 cells) was 46%. For the same compound, the “% Inhibition of proliferation” value (HT-29 cells [11]) was 62%, the “% Inhibition of proliferation” value (SK-OV3 cells) was 44% and the “% Inhibition of proliferation” value (Lovo cells) was 49%. The “GeoMean of Fluorescence minus GeoMean with the secondary antibody only” value (“GeoMean of Fluorescence minus GeoMean” below) (SK-OV-3 cells) was 4053, the “GeoMean of Fluorescence minus GeoMean” value (NCI-H322 cells) was 330 and the “GeoMean of Fluorescence minus GeoMean” value (WiDr cells [12]) was 3563. For the same compound, the “GeoMean of Fluorescence minus GeoMean” value (786-O cells [13]) was 25283, the “GeoMean of Fluorescence minus GeoMean” value (HT-29 cells [14]) was 2127 and the “GeoMean of Fluorescence minus GeoMean” value (A375 cells [15]) was 865. The “IL-8 release, % of the activation as compared to 300 ng/ml TWEAK ligand” value (A375 cells [16]) was 66%.
